How the values were obtained:
Assay type in all cases: physicochemical
[1] = Thermodynamic solubility studies; conditions: for Average Concentration: triplicate average; for Form by XRPD Dry: residual solids dried under vacuum; for Form by XRPD Wet: residual solids
Method: For each experiment, approximately 50 mg of either crystal form A or crystal form B was weighed into a 20 mL scintillation vial. 15 mL of the appropriate solvent system was added and the solution was stirred at 37° C. At approximately 7.5 h, a portion of the mother liquor was transferred to a pre-heated vial (at 37° C.) via syringe filter (0.45 μm). An aliquot of slurry was removed, and the solids in the aliquot were isolated by centrifugation and plated for XRPD analysis. The plated solids were stored in freezer for 12 h prior to analysis.
The remaining solution was further stirred at 37° C. overnight (approximately 25 h total stirring time). Stirring was then terminated and the solids were allowed to settle. After approximately 0.75 h, a portion of the mother liquor was transferred to a pre-heated vial (at 37° C.) via syringe filter (0.45 μm). The residual solids were isolated by centrifugation and analyzed by XRPD.
For “dry” analysis, the XRPD plates were dried under vacuum at ambient temperature for approximately 23 h and re-analyzed.

[2] = Dynamic Vapor Sorption (DVS)
Method: Approximately 10-20 mg of sample was placed into a mesh vapor sorption balance pan and loaded into a Surface Measurement Systems DVS Intrinsic dynamic vapor sorption balance. The material was subjected to a ramping profile from 40 to 90% relative humidity (RH) at 10% increments, maintaining the sample at each step until a stable weight had been achieved (dm/dt 0.004%, minimum step length 30 minutes, maximum step length 500 minutes) at 25° C. After completion of the sorption cycle, the sample was dried using the same procedure to 0% RH and then a second sorption cycle back to 40% RH was carried out. Two cycles were performed. The weight change during the sorption/desorption cycles were plotted, allowing the hygroscopic nature of the sample to be determined. XRPD analysis was then carried out on any solid retained.
Because this equilibration with ambient humidity is rapid, calculation or use of sufficiently accurate assay results on Form A material must take into account its current water content.

[3] = Thermogravimetric Analysis/Dynamic Temperature Analysis (TGA/DTA); conditions: for TGA wt. loss: from the onset to about 210° C., heating 10° C./min
Method: Approximately 5-10 mg of material was weighed into an open aluminum pan and loaded into a TA Instruments SDT650 and held at room temperature. The sample was then heated at a rate of 10° C./min from 30° C. to 350° C. during which time the change in sample weight was recorded along with the heat flow response (DSC). Nitrogen was used as the purge gas, at a flow rate of 100 cm^3/min for both the sample and balance purges.

[4] = FaSSGF, after approximately 7.5 h at 37° C.
[5] = FaSSGF, after approximately 25 h at 37° C.
[6] = FaSSIF, after approximately 7.5 h at 37° C.
[7] = FaSSIF, after approximately 25 h at 37° C.
[8] = FeSSIF, after approximately 7.5 h at 37° C.
[9] = FeSSIF, after approximately 25 h at 37° C.
[10] = pH 6.1 media, after approximately 7.5 h at 37° C.
[11] = pH 6.1 media, after approximately 25 h at 37° C.
[12] = pH 6.8 media, after approximately 7.5 h at 37° C.
[13] = pH 6.8 media, after approximately 25 h at 37° C.
[14] = FaSSGF, approximately 7.5 h at 37° C.
[15] = FaSSGF, approximately 25 h at 37° C.
[16] = FeSSIF, approximately 7.5 h at 37° C.
[17] = FeSSIF, approximately 25 h at 37° C.
[18] = pH 6.1 media, approximately 25 h at 37° C.
[19] = pH 6.8 media, approximately 25 h at 37° C.

Row | SMILES | Average Concentration [1, 4] [µg/mL] | Average Concentration [1, 5] [µg/mL] | Average Concentration [1, 6] [µg/mL] | Average Concentration [1, 7] [µg/mL] | Average Concentration [1, 8] [µg/mL] | Average Concentration [1, 9] [µg/mL] | Average Concentration [1, 10] [µg/mL] | Average Concentration [1, 11] [µg/mL] | Average Concentration [1, 12] [µg/mL] | Average Concentration [1, 13] [µg/mL] | TGA wt. loss [3] [% wt.] | further results
1 | CCCCCCC(C)(C)c1cc(O)c2c(c1)OC(C)(C)[C@@H]1CC=C(C(=O)O)C[C@@H]21 [crystal form A, (6aR,10aR)-1-hydroxy-6,6-dimethyl-3-(2-methyl-2-octanyl)-6a,7,10,10a-tetrahydro-6H-benzo[c]chromene-9-carboxylic acid] | 0.2 | 0.2 | 1063 | 391 | 335 | 227 | 3.0 | 2.0 | 18 | 14 | 0.7 | Form by XRPD Dry [1, 14]: A + trace B; Form by XRPD Dry [1, 15]: B + A; Form by XRPD Dry [1, 16]: A*; Form by XRPD Dry [1, 17]: (X) +; Form by XRPD Dry [1, 18]: A +; Form by XRPD Dry [1, 19]: A*; Form by XRPD Wet [1, 14]: A + trace B; Form by XRPD Wet [1, 15]: A + B; Form by XRPD Wet ([1]; FaSSIF, approximately 25 h at 37° C.): B +; Form by XRPD Wet [1, 16]: A*; Form by XRPD Wet [1, 17]: (X) +; Form by XRPD Wet [1, 18]: A + B; Form by XRPD Wet [1, 19]: A*; uptake of water by weight ([2]; at 90% RH, similar DVS studies): about 3.5%; TGA wt. loss ([3]; listed as Crystal Form A): 0.7 % wt.
2 | CCCCCCC(C)(C)c1cc(O)c2c(c1)OC(C)(C)[C@@H]1CC=C(C(=O)O)C[C@@H]21 [crystal form B, (6aR,10aR)-1-hydroxy-6,6-dimethyl-3-(2-methyl-2-octanyl)-6a,7,10,10a-tetrahydro-6H-benzo[c]chromene-9-carboxylic acid] | 0.3 | 0.4 | 242 | 266 | 684 | 696 | 1.2 | 0.1 | 4.3 | 2.0 | 0.9 | water uptake ([2]; at 90% RH, 25° C.): circa 1 wt %; hygroscopic nature by DVS ([2]; ramping 40 to 90% RH, 25° C.): slightly hygroscopic; Post-DVS XRPD analysis ([2]; solid retained after two sorption/desorption cycles): no change in pattern; TGA wt. loss ([3]; listed as Crystal Form B): no significant mass loss; decomposition temperature by TGA/DTA ([3]; heating 10° C./min from 30° C. to 350° C.): ca. 285 °C

From patent US20230339880A1, “COMPOSITIONS OF AJULEMIC ACID AND USES THEREOF” (priority 2019, published 2023)
